The values below come from patent publication US9833497B2, “Human originated EGF domain proteins and use of the same” (CHENGDU SOURCEBIO LIMITED-LIABILITY COMPANY, priority 2013, dated 2017).

A word on the MIC: it is the smallest concentration in the dilution series that meets the test's criterion for growth inhibition. The low end stands for a more susceptible organism, the high end for a less susceptible organism.

What all share (format): cell-based
The subject of one assay is E. coli BL21. Briefly: MIC against Gram-negative bacteria: E. coli BL21. The settings on record: 5×10^5 CFU/mL. In a few lines:
(§1)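 MIC = lowest concentration of recombinant protein showing no growth. Test proteins: purified human-derived EGF domain proteins, two-fold dilution series, three wells per concentration; inoculum 5×10^5 CFU/mL in LB; incubation 37° C with shaking at 175 rpm.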

A further assay concerns Proteus mirabilis. Briefly: MIC against Gram-negative bacteria: Proteus mirabilis. The settings on record: 5×10^5 CFU/mL. In a few lines: as §1
A further assay has as its system Enterobacter cloacae. Briefly: MIC against Gram-negative bacteria: Enterobacter cloacae. The settings on record: 5×10^5 CFU/mL. In a few lines: as §1
For the next assay, the system named is E. coli DH5α. Briefly: Antibacterial activity: MIC and growth curve against E. coli DH5α in 96-well plate. The settings on record: minimal inhibitory concentration against E. coli DH5α; 96-well plate, 5×10^5 CFU/mL, 37° C., judged after 8 h. In a few lines:
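MIC taken as lowest protein level with no bacterial growth, tracked by A600 every 30 min during 37 °C, 175 rpm culture. Two-fold protein series 50-12.5 μg/mL final, triplicate wells, against 5×10^5 CFU/mL of LB-washed mid-log cells.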

Another assay has as its system Serratia marcescens. Briefly: MIC against Gram-negative bacteria: Serratia marcescens. The settings on record: 5×10^5 CFU/mL. In a few lines: as §1
In another assay the test system is Moraxella catarrhalis. Briefly: MIC against Gram-negative bacteria: Moraxella catarrhalis. The settings on record: 5×10^5 CFU/mL. In a few lines: as §1
For a further assay, the system named is Pseudomonas aeruginosa. Briefly: MIC against Gram-negative bacteria: Pseudomonas aeruginosa. The settings on record: 5×10^5 CFU/mL. In a few lines: as §1
The subject of a further assay is Proteus vulgaris. Briefly: MIC against Gram-negative bacteria: Proteus vulgaris. The settings on record: 5×10^5 CFU/mL. In a few lines:
as §1

In a further assay the test system is Aeromonas hydrophila. Briefly: MIC against Gram-negative bacteria: Aeromonas hydrophila. The settings on record: 5×10^5 CFU/mL. In a few lines:
as §1

The next assay deals with Citrobacter diversus. Briefly: MIC against Gram-negative bacteria: Citrobacter diversus. The settings on record: 5×10^5 CFU/mL. In a few lines:
as §1

Another assay deals with Klebsiella pneumonia. Briefly: MIC against Gram-negative bacteria: Klebsiella pneumonia. As to conditions: 5×10^5 CFU/mL. In a few lines: as §1
Setting [1] is: 10 h cultivation at 37° C., two-fold serial dilution.

As for “PRT487 (SLCDLQPDFCLNDGKCDIMPGHGAICRCRVGENWWYRGKHCE; listed as Homo sapiens)”, the “MIC against E. coli BL21” value in the assay on E. coli BL21 (96-well plate, 37° C., 10 h) amounted to 25 µg/mL. Besides, in the assay with Proteus mirabilis (96-well plate, 37° C., 10 h), the “MIC against P. mirabilis” value was 12.5 µg/mL. The “MIC against E. cloacae” value against Enterobacter cloacae (96-well plate, 37° C., 10 h) turned out to be 12.5 µg/mL. The substance further gave an MIC in the assay on E. coli DH5α of 12.5 µg/mL. Besides, in the assay on Serratia marcescens (96-well plate, 37° C., 10 h), the “MIC against S. marcescens” value was determined as 12.5 µg/mL. For the same substance, the “MIC against M. catarrhalis” value in the assay on Moraxella catarrhalis (96-well plate, 37° C., 10 h) came to 25 µg/mL. In addition, the “MIC against P. aeruginosa” value with Pseudomonas aeruginosa (96-well plate, 37° C., 10 h) amounted to 12.5 µg/mL. In the assay with Proteus vulgaris (96-well plate, 37° C., 10 h), the “MIC against P. vulgaris” value turned out to be 50 µg/mL. Also, the “MIC against A. hydrophila” value in the assay with Aeromonas hydrophila (96-well plate, 37° C., 10 h) was found to be 25 µg/mL. The “MIC against C. diversus” value against Citrobacter diversus (96-well plate, 37° C., 10 h) stood at 12.5 µg/mL. Also, in the assay with Klebsiella pneumonia (96-well plate, 37° C., 10 h), the “MIC against K. pneumonia” value was 25 µg/mL.

Consider “PRT64 (PCSSSPCRGGATCALGPHGKNYTCRCPQGYQLDSSQLDCV; listed as Homo sapiens)”, for which, in the assay on E. coli BL21 (96-well plate, 37° C., 10 h), the “MIC (μg/mL) E. coli BL21” value is 12.5 µg/mL. Further, in the assay with Proteus mirabilis (Proteus mirabilis, 96-well plate, 37° C., 10 h), the “MIC (μg/mL) P. mirabilis” value was 25 µg/mL. For the same substance, the “MIC (μg/mL) E. cloacae” value against Enterobacter cloacae (Enterobacter cloacae, 96-well plate, 37° C., 10 h) amounted to 12.5 µg/mL. This substance registered an MIC in the assay on E. coli DH5α of 12.5 µg/mL. Moreover, in the assay on Serratia marcescens (Serratia marcescens, 96-well plate, 37° C., 10 h), the “MIC (μg/mL) S. marcescens” value was 25 µg/mL. The “MIC (μg/mL) M. catarrhalis” value in the assay on Moraxella catarrhalis (Moraxella catarrhalis, 96-well plate, 37° C., 10 h) turned out to be 25 µg/mL. Besides, the “MIC (μg/mL) P. aeruginosa” value with Pseudomonas aeruginosa (Pseudomonas aeruginosa, 96-well plate, 37° C., 10 h) worked out at 50 µg/mL. Further, the “MIC (μg/mL) P. vulgaris” value with Proteus vulgaris (Proteus vulgaris, 96-well plate, 37° C., 10 h) was 25 µg/mL. Besides, the “MIC (μg/mL) A. hydrophila” value with Aeromonas hydrophila (Aeromonas hydrophila, 96-well plate, 37° C., 10 h) worked out at 25 µg/mL. In the assay with Citrobacter diversus (Citrobacter diversus, 96-well plate, 37° C., 10 h), the “MIC (μg/mL) C. diversus” value amounted to 50 µg/mL. For the same substance, the “MIC (μg/mL) K. pneumonia” value in the assay with Klebsiella pneumonia (Klebsiella pneumonia, 96-well plate, 37° C., 10 h) came to 25 µg/mL.

Turning to “PRT542 (CRCDIGGALGQSCEPRTGVCRC; listed as Homo sapiens)”, the “MIC against E. coli BL21” value with E. coli BL21 (96-well plate, 37° C., 10 h) was found to be 12.5 µg/mL. In addition, the “MIC against P. mirabilis” value in the assay with Proteus mirabilis (96-well plate, 37° C., 10 h) came out at 50 µg/mL. Also, the “MIC against E. cloacae” value against Enterobacter cloacae (96-well plate, 37° C., 10 h) stood at 25 µg/mL. Further, in the assay with E. coli DH5α, the MIC came out at 25 µg/mL. The “MIC against S. marcescens” value in the assay on Serratia marcescens (96-well plate, 37° C., 10 h) was found to be 50 µg/mL. The “MIC against M. catarrhalis” value in the assay with Moraxella catarrhalis (96-well plate, 37° C., 10 h) was determined as 12.5 µg/mL. The “MIC against P. aeruginosa” value in the assay on Pseudomonas aeruginosa (96-well plate, 37° C., 10 h) was 25 µg/mL. Further, the “MIC against P. vulgaris” value against Proteus vulgaris (96-well plate, 37° C., 10 h) was 12.5 µg/mL. The “MIC against A. hydrophila” value against Aeromonas hydrophila (96-well plate, 37° C., 10 h) was found to be 12.5 µg/mL. In addition, the “MIC against C. diversus” value in the assay on Citrobacter diversus (96-well plate, 37° C., 10 h) is 50 µg/mL. Moreover, the “MIC against K. pneumonia” value in the assay on Klebsiella pneumonia (96-well plate, 37° C., 10 h) was 50 µg/mL.

As to “PRT1168 (NINDCSQNPCHNGGTCRDLVNDFYCDCKNGWKGKTCH; listed as Homo sapiens)”, the “MIC E. coli BL21” value against E. coli BL21 (setting [1]) worked out at 12.5 µg/mL. Besides, in the assay with Proteus mirabilis (setting [1]), the “MIC P. mirabilis” value came to 12.5 µg/mL. Also, in the assay on Enterobacter cloacae (setting [1]), the “MIC E. cloacae” value came out at 12.5 µg/mL. The minimal inhibitory concentration (MIC) with E. coli DH5α was 25 µg/mL. The “MIC S. marcescens” value against Serratia marcescens (setting [1]) came to 12.5 µg/mL. Besides, the “MIC M. catarrhalis” value against Moraxella catarrhalis (setting [1]) is 50 µg/mL. Further, the “MIC P. aeruginosa” value in the assay with Pseudomonas aeruginosa (setting [1]) is 25 µg/mL. The “MIC P. vulgaris” value in the assay with Proteus vulgaris (setting [1]) came out at 50 µg/mL. In the assay on Aeromonas hydrophila (setting [1]), the “MIC A. hydrophila” value was found to be 50 µg/mL. Further, in the assay on Citrobacter diversus (setting [1]), the “MIC C. diversus” value worked out at 12.5 µg/mL. Further, the “MIC K. pneumonia” value with Klebsiella pneumonia (setting [1]) came out at 50 µg/mL.

In the case of “PRT759 (RVDYCLLSDHGCEYSCVNMDRSFACQCPEGHVLRSDGKTCA; listed as Homo sapiens)”, the “MIC (μg/mL) E. coli BL21” value with E. coli BL21 (10 h cultivation at 37° C.) came out at 12.5 µg/mL. For the same substance, the “MIC (μg/mL) P. mirabilis” value with Proteus mirabilis (P. mirabilis, 10 h cultivation at 37° C.) is 12.5 µg/mL. For the same substance, the “MIC (μg/mL) E. cloacae” value against Enterobacter cloacae (E. cloacae, 10 h cultivation at 37° C.) amounted to 12.5 µg/mL. The same substance gave an MIC against E. coli DH5α of 25 µg/mL. Moreover, in the assay with Serratia marcescens (S. marcescens, 10 h cultivation at 37° C.), the “MIC (μg/mL) S. marcescens” value turned out to be 25 µg/mL. In addition, the “MIC (μg/mL) M. catarrhalis” value with Moraxella catarrhalis (M. catarrhalis, 10 h cultivation at 37° C.) was 25 µg/mL. Also, the “MIC (μg/mL) P. aeruginosa” value in the assay on Pseudomonas aeruginosa (P. aeruginosa, 10 h cultivation at 37° C.) turned out to be 25 µg/mL. The “MIC (μg/mL) P. vulgaris” value in the assay on Proteus vulgaris (P. vulgaris, 10 h cultivation at 37° C.) stood at 12.5 µg/mL. The “MIC (μg/mL) A. hydrophila” value in the assay with Aeromonas hydrophila (A. hydrophila, 10 h cultivation at 37° C.) was found to be 12.5 µg/mL. Further, in the assay on Citrobacter diversus (C. diversus, 10 h cultivation at 37° C.), the “MIC (μg/mL) C. diversus” value was determined as 12.5 µg/mL. Moreover, in the assay on Klebsiella pneumonia (K. pneumonia, 10 h cultivation at 37° C.), the “MIC (μg/mL) K. pneumonia” value turned out to be 12.5 µg/mL.
